In patent US20230218563A1, “METHODS FOR TREATING OR PREVENTING CHRONIC KIDNEY DISEASE” (Arthrosi Therapeutics, Inc., priority 2020, published 2023):

Key:
[1] = system: urine albumin-to-creatinine ratio (UACR); experiment: Phase 2a study, UACR in a subject with albuminuria; type: in vivo, human; conditions: one subject with albuminuria, baseline 96 mg/g; sequential 7-day periods: Compound 1 50 mg (Day 7), Compound 1 50 mg/allopurinol 300 mg (Day 14), allopurinol 300 mg (Day 21)
Description: Urine samples were collected for assessment of uric acid excretion. Laboratory safety tests, vital signs, and electrocardiograms were collected throughout the study.

serum uric acid (sUA) = experiment: Phase 1 single dose study, pharmacodynamics (serum uric acid) in healthy adult males; type: in vivo, human
Description: The dose groups included Cohort 1 (15 mg or placebo, fasted, oral suspension), Cohort 2 (50 mg or placebo, fasted, suspension), Cohort 3 (100 mg or placebo, fasted, oral suspension), Cohort 4 (150 mg or placebo, fasted, oral suspension), Cohort 6 (50 mg or placebo, fed, oral suspension), and Cohort 7 (50 mg or placebo, fasted, oral capsule). […] An additional 8 subjects received placebo.
Decrease in sUA appeared to reach a plateau at 100 mg or lower.

[2] = 15 mg single oral, fasted, 12 h
[3] = 15 mg single oral, fasted, 30 h
[4] = 15 mg single oral, fasted, 36 h
[5] = 15 mg single oral, fasted, 48 h
[6] = 15 mg single oral, fasted, 54 h
[7] = 15 mg single oral, fasted, 60 h
[8] = 15 mg single oral, fasted, 72 h
[9] = 15 mg single oral, fasted, 96 h
[10] = 15 mg single oral, fasted, 120 h
[11] = 50 mg single oral, fasted, Capsule, 6 h
[12] = 50 mg single oral, fasted, Capsule, 12 h
[13] = 50 mg single oral, fasted, Capsule, 24 h
[14] = 50 mg single oral, fasted, Capsule, 30 h
[15] = 50 mg single oral, fasted, Capsule, 36 h
[16] = 50 mg single oral, fasted, Capsule, 48 h
[17] = 50 mg single oral, fasted, Capsule, 54 h
[18] = 50 mg single oral, fasted, Capsule, 60 h
[19] = 50 mg single oral, fasted, Capsule, 72 h
[20] = 50 mg single oral, fasted, Capsule, 96 h
[21] = 50 mg single oral, fasted, Capsule, 120 h
[22] = 50 mg single oral, fasted, 12 h
[23] = 50 mg single oral, fasted, 24 h
[24] = 50 mg single oral, fasted, 30 h
[25] = 50 mg single oral, fasted, 36 h
[26] = 50 mg single oral, fasted, 48 h
[27] = 50 mg single oral, fasted, 54 h
[28] = 50 mg single oral, fasted, 60 h
[29] = 50 mg single oral, fasted, 72 h
[30] = 50 mg single oral, fasted, 96 h
[31] = 50 mg single oral, fasted, 120 h

[2H]c1c([2H])c([2H])c2c(C(=O)c3cc(Br)c(O)c(Br)c3)c(C(C)O)oc2c1[2H] (racemic) [Compound 1, (3,5-dibromo-4-hydroxyphenyl)(2-(1-hydroxyethyl)benzofuran-3-yl-4,5,6,7-d4)methanone]
UACR [1]: 41 mg/g | UACR % change from baseline [1]: −57.4% | Percent change in serum uric acid, mean, time-matched (Day-1) baseline (serum uric acid (sUA); 15 mg single oral, fasted, 6 h): 2.7% | Serum uric acid, mean (serum uric acid (sUA); 15 mg single oral, fasted, 6 h): 5.4 mg/dL | Percent change in serum uric acid, mean, time-matched (Day-1) baseline (serum uric acid (sUA); [2]): 8.7% | Serum uric acid, mean (serum uric acid (sUA); [2]): 5.1 mg/dL | Serum uric acid, mean (serum uric acid (sUA); 15 mg single oral, fasted, 24 h): 5.1 mg/dL | Percent change in serum uric acid, mean, time-matched (Day-1) baseline (serum uric acid (sUA); [3]): 0.7% | Serum uric acid, mean (serum uric acid (sUA); [3]): 5.2 mg/dL | Percent change in serum uric acid, mean, time-matched (Day-1) baseline (serum uric acid (sUA); [4]): −1.4% | Serum uric acid, mean (serum uric acid (sUA); [4]): 4.6 mg/dL | Percent change in serum uric acid, mean, time-matched (Day-1) baseline (serum uric acid (sUA); [5]): −4.4% | Serum uric acid, mean (serum uric acid (sUA); [5]): 5.2 mg/dL | Percent change in serum uric acid, mean, time-matched (Day-1) baseline (serum uric acid (sUA); [6]): −1.5% | Serum uric acid, mean (serum uric acid (sUA); [6]): 5.1 mg/dL | Percent change in serum uric acid, mean, time-matched (Day-1) baseline (serum uric acid (sUA); [7]): 10.0% | Serum uric acid, mean (serum uric acid (sUA); [7]): 5.2 mg/dL | Percent change in serum uric acid, mean, time-matched (Day-1) baseline (serum uric acid (sUA); [8]): 3.6% | Serum uric acid, mean (serum uric acid (sUA); [8]): 5.6 mg/dL | Percent change in serum uric acid, mean, time-matched (Day-1) baseline (serum uric acid (sUA); [9]): 7.8% | Serum uric acid, mean (serum uric acid (sUA); [9]): 5.8 mg/dL | Percent change in serum uric acid, mean, time-matched (Day-1) baseline (serum uric acid (sUA); [10]): 13.0% | Serum uric acid, mean (serum uric acid (sUA); [10]): 6.1 mg/dL | Percent change in serum uric acid, mean, time-matched (Day-1) baseline (serum uric acid (sUA); [11]): −26.9% | Serum uric acid, mean (serum uric acid (sUA); [11]): 4.0 mg/dL | Percent change in serum uric acid, mean, time-matched (Day-1) baseline (serum uric acid (sUA); [12]): −37.5% | Serum uric acid, mean (serum uric acid (sUA); [12]): 3.4 mg/dL | Percent change in serum uric acid, mean, time-matched (Day-1) baseline (serum uric acid (sUA); [13]): −38.3% | Serum uric acid, mean (serum uric acid (sUA); [13]): 3.7 mg/dL | Percent change in serum uric acid, mean, time-matched (Day-1) baseline (serum uric acid (sUA); [14]): −36.9% | Serum uric acid, mean (serum uric acid (sUA); [14]): 3.4 mg/dL | Percent change in serum uric acid, mean, time-matched (Day-1) baseline (serum uric acid (sUA); [15]): −34.1% | Serum uric acid, mean (serum uric acid (sUA); [15]): 3.6 mg/dL | Percent change in serum uric acid, mean, time-matched (Day-1) baseline (serum uric acid (sUA); [16]): −32.4% | Serum uric acid, mean (serum uric acid (sUA); [16]): 4.1 mg/dL | Percent change in serum uric acid, mean, time-matched (Day-1) baseline (serum uric acid (sUA); [17]): −28.1% | Serum uric acid, mean (serum uric acid (sUA); [17]): 3.9 mg/dL | Percent change in serum uric acid, mean, time-matched (Day-1) baseline (serum uric acid (sUA); [18]): −21.0% | Serum uric acid, mean (serum uric acid (sUA); [18]): 4.3 mg/dL | Percent change in serum uric acid, mean, time-matched (Day-1) baseline (serum uric acid (sUA); [19]): −17.8% | Serum uric acid, mean (serum uric acid (sUA); [19]): 4.9 mg/dL | Percent change in serum uric acid, mean, time-matched (Day-1) baseline (serum uric acid (sUA); [20]): −11.2% | Serum uric acid, mean (serum uric acid (sUA); [20]): 5.3 mg/dL | Percent change in serum uric acid, mean, time-matched (Day-1) baseline (serum uric acid (sUA); [21]): −12.5% | Serum uric acid, mean (serum uric acid (sUA); [21]): 5.2 mg/dL | Percent change in serum uric acid, mean, time-matched (Day-1) baseline (serum uric acid (sUA); 50 mg single oral, fasted, 6 h): −23.8% | Serum uric acid, mean (serum uric acid (sUA); 50 mg single oral, fasted, 6 h): 4.6 mg/dL | Percent change in serum uric acid, mean, time-matched (Day-1) baseline (serum uric acid (sUA); [22]): −33.6% | Serum uric acid, mean (serum uric acid (sUA); [22]): 3.9 mg/dL | Percent change in serum uric acid, mean, time-matched (Day-1) baseline (serum uric acid (sUA); [23]): −42.4% | Serum uric acid, mean (serum uric acid (sUA); [23]): 3.9 mg/dL | Percent change in serum uric acid, mean, time-matched (Day-1) baseline (serum uric acid (sUA); [24]): −33.5% | Serum uric acid, mean (serum uric acid (sUA); [24]): 4.1 mg/dL | Percent change in serum uric acid, mean, time-matched (Day-1) baseline (serum uric acid (sUA); [25]): −33.9% | Serum uric acid, mean (serum uric acid (sUA); [25]): 3.9 mg/dL | Percent change in serum uric acid, mean, time-matched (Day-1) baseline (serum uric acid (sUA); [26]): −35.8% | Serum uric acid, mean (serum uric acid (sUA); [26]): 4.3 mg/dL | Percent change in serum uric acid, mean, time-matched (Day-1) baseline (serum uric acid (sUA); [27]): −32.1% | Serum uric acid, mean (serum uric acid (sUA); [27]): 4.2 mg/dL | Percent change in serum uric acid, mean, time-matched (Day-1) baseline (serum uric acid (sUA); [28]): −24.2% | Serum uric acid, mean (serum uric acid (sUA); [28]): 4.5 mg/dL | Percent change in serum uric acid, mean, time-matched (Day-1) baseline (serum uric acid (sUA); [29]): −26.1% | Serum uric acid, mean (serum uric acid (sUA); [29]): 5.0 mg/dL | Percent change in serum uric acid, mean, time-matched (Day-1) baseline (serum uric acid (sUA); [30]): −9.6% | Serum uric acid, mean (serum uric acid (sUA); [30]): 6.0 mg/dL | Percent change in serum uric acid, mean, time-matched (Day-1) baseline (serum uric acid (sUA); [31]): −4.6% | Serum uric acid, mean (serum uric acid (sUA); [31]): 6.4 mg/dL | Percent change in serum uric acid, mean, time-matched (Day-1) baseline (serum uric acid (sUA); 50 mg single oral, fed, 6 h): −20.3% | Serum uric acid, mean (serum uric acid (sUA); 50 mg single oral, fed, 6 h): 4.8 mg/dL | Percent change in serum uric acid, mean, time-matched (Day-1) baseline (serum uric acid (sUA); 50 mg single oral, fed, 12 h): −37.7% | Serum uric acid, mean (serum uric acid (sUA); 50 mg single oral, fed, 12 h): 3.9 mg/dL | Percent change in serum uric acid, mean, time-matched (Day-1) baseline (serum uric acid (sUA); 50 mg single oral, fed, 24 h): −41.9%
